Assay results: US9682977B2, “Bicyclic heteroaryl indole analogues useful as ROR gamma modulators” (Glenmark Pharmaceuticals S.A., priority 2013, dated 2017)
Like-named read-outs stand apart in the source and are kept apart here.

Biological target: T1, GST-tagged ROR gamma ligand binding domain (LBD) (Homo sapiens, UniProt P51449)
T1 construct: purchased Invitrogen
T1 sequence (P51449 269-508 limits assumed): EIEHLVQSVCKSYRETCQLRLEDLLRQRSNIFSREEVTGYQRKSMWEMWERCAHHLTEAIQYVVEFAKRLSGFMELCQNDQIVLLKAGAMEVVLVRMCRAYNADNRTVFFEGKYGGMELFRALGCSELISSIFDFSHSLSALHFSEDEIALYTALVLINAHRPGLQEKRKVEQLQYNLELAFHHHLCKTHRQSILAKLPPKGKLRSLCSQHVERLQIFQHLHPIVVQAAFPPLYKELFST
Assay: TR-FRET assay for ROR gamma (Lantha Screen, co-activator peptide recruitment)
Assay type: biochemical
Conditions: for inhibition at 1 µM: read-out: % inhibition at 1 μM; for inhibition at 10 µM: read-out: % inhibition at 10 μM

[1] = class symbols, from dose response curve, read-out: IC50 value
[2] = compound concentration 1 μM, TR-FRET ratio 520/495, percent of control
[3] = compound concentration 10 μM, TR-FRET ratio 520/495, percent of control

| SMILES | IC50 [1] | inhibition at 1 µM [2] | inhibition at 10 µM [3] | IC50 | inhibition at 1 µM | inhibition at 10 µM |
| --- | --- | --- | --- | --- | --- | --- |
| Cc1ccccc1Oc1nn(-c2ccc(C(=O)O)cc2)c2ccccc12 [Example 1, 4-[3-(2-Methylphenoxy)-1H-indazol-1-yl]benzoic acid] | < 50 nM | 90% | 96.3% | – | – | – |
| O=C(O)c1ccc(-n2nc(Oc3ccccc3C(F)(F)F)c3ccccc32)cc1 [Example 2, 4-{3-[2-(Trifluoromethyl)phenoxy]-1H-indazol-1-yl}benzoic acid] | < 50 nM | 96.9% | 98.4% | – | – | – |
| Cc1cccc(Oc2nn(-c3ccc(C(=O)O)cc3)c3ccccc23)c1 [Example 3, 4-[3-(3-Methylphenoxy)-1H-indazol-1-yl]benzoic acid] | – | 23.4% | 34.6% | – | – | – |
| O=C(O)c1ccc(-n2nc(Oc3ccccc3)c3ccccc32)cc1 [Example 4, 4-(3-Phenoxy-1H-indazol-1-yl)benzoic acid] | – | 31.2% | 37% | – | – | – |
| O=C(O)c1ccc(-n2nc(Oc3c(Cl)cccc3Cl)c3ccccc32)cc1 [Example 5, 4-[3-(2,6-Dichlorophenoxy)-1H-indazol-1-yl]benzoic acid] | < 50 nM | 98.4% | 99% | – | – | – |
| O=C(O)c1ccc(-n2nc(Oc3c(Cl)cccc3Cl)c3ccccc32)c(F)c1 [Example 6, 4-[3-(2,6-Dichlorophenoxy)-1H-indazol-1-yl]-3-fluorobenzoic acid] | < 50 nM | 99.2% | 99.6% | – | – | – |
| O=C(O)c1ccc(-n2nc(Oc3c(Cl)cccc3C(F)(F)F)c3ccccc32)c(F)c1 [Example 7, 4-{3-[2-Chloro-6-(trifluoromethyl)phenoxy]-1H-indazol-1-yl}-3-fluorobenzoic acid] | < 50 nM | 95.3% | 94.8% | – | – | – |
| O=C(O)c1ccc(-n2nc(Oc3ccccc3C(F)(F)F)c3ccccc32)c(F)c1 [Example 8, 3-Fluoro-4-{3-[2-(trifluoromethyl)phenoxy]-1H-indazol-1-yl}benzoic acid] | < 50 nM | 96.4% | 98.2% | – | – | – |
| O=C(O)c1ccc(-n2nc(Oc3ccc(Cl)cc3C(F)(F)F)c3ccccc32)c(F)c1 [Example 9, 4-{3-[4-Chloro-2-(trifluoromethyl)phenoxy]-1H-indazol-1-yl}-3-fluorobenzoic acid] | > 100 nM | 86.5% | 96.9% | – | – | – |
| O=C(O)c1ccc(-n2nc(Oc3c(Cl)cccc3C(F)F)c3ccccc32)c(F)c1 [Example 10, 4-{3-[2-Chloro-6-(difluoromethyl)phenoxy]-1H-indazol-1-yl}-3-fluorobenzoic acid] | < 50 nM | 100% | 100% | – | – | – |
| O=C(O)c1ccc(-n2nc(Oc3c(Cl)cccc3Cl)c3cccc(F)c32)c(F)c1 [Example 11, 4-[3-(2,6-Dichlorophenoxy)-7-fluoro-1H-indazol-1-yl]-3-fluorobenzoic acid] | < 50 nM | 98.1% | 97.8% | – | – | – |
| O=C(O)c1ccc(-n2nc(Oc3c(Cl)cccc3C(F)F)c3cccc(F)c32)c(F)c1 [Example 12, 4-{3-[2-Chloro-6-(difluoromethyl)phenoxy]-7-fluoro-1H-indazol-1-yl}-3-fluorobenzoic acid] | < 50 nM | 94.4% | 95.1% | – | – | – |
| O=C(O)c1ccc(-n2nc(Oc3c(Cl)cccc3C3CC3)c3ccccc32)c(F)c1 [Example 13, 4-[3-(2-Chloro-6-cyclopropylphenoxy)-1H-indazol-1-yl]-3-fluorobenzoic acid] | < 50 nM | 91.7% | 91.7% | – | – | – |
| O=C(O)c1ccc(-n2nc(Oc3c(Cl)cccc3C3CC3)c3cccc(F)c32)c(F)c1 [Example 14, 4-[3-(2-Chloro-6-cyclopropylphenoxy)-7-fluoro-1H-indazol-1-yl]-3-fluorobenzoic acid] | < 50 nM | 91.4% | 91.2% | – | – | – |
| O=C(O)c1ccc(-n2cc(C(=O)c3ccccc3F)c3ccccc32)cc1 [Example 15, 4-{3-[(2-Fluorophenyl)carbonyl]-1H-indol-1-yl}benzoic acid] | > 100 nM | 76.4% | 95.8% | – | – | – |
| O=C(O)c1ccc(-n2cc(C(=O)c3c(Cl)cccc3Cl)c3ccccc32)cc1 [Example 16, 4-{3-[(2,6-Dichlorophenyl)carbonyl]-1H-indol-1-yl}benzoic acid] | – | – | – | < 50 nM | 96% | 97.2% |
| O=C(O)c1ccc(-n2cc(C(=O)c3ccccc3Cl)c3ccccc32)cc1 [Example 17, 4-{3-[(2-Chlorophenyl)carbonyl]-1H-indol-1-yl}benzoic acid] | – | – | – | 50 to 100 nM | 84.9% | 96% |

| SMILES | IC50 [1] | inhibition at 1 µM [2] | inhibition at 10 µM [3] | IC50 | inhibition at 1 µM | inhibition at 10 µM |
| --- | --- | --- | --- | --- | --- | --- |
| O=C(O)c1ccc(-n2cc(C(=O)c3c(F)cccc3F)c3ccccc32)cc1 [Example 18, 4-{3-[(2,6-Difluorophenyl)carbonyl]-1H-indol-1-yl}benzoic acid] | – | – | – | 50 to 100 nM | 81% | 94.5% |
| O=C(O)c1ccc(-n2cc(C(=O)c3ccccc3Cl)c3ccccc32)c(F)c1 [Example 20, 4-{3-[(2-Chlorophenyl)carbonyl]-1H-indol-1-yl}-3-fluorobenzoic acid] | < 50 nM | 95.7% | 100% | – | – | – |
| O=C(O)c1ccc(-n2cc(C(=O)c3c(Cl)cccc3C(F)(F)F)c3ccccc32)c(F)c1 [Example 21, 4-{3-[2-Chloro-6-(trifluoromethyl)benzoyl]-1H-indol-1-yl}-3-fluorobenzoic acid] | – | – | – | < 50 nM | 92.2% | 92.4% |
| O=C(O)c1ccc(-n2cc(C(=O)c3c(Cl)cccc3Cl)c3c(F)cccc32)c(F)c1 [Example 22, 4-[3-(2,6-Dichlorobenzoyl)-4-fluoro-1H-indol-1-yl]-3-fluorobenzoic acid] | – | – | – | < 50 nM | 96.8% | 99.3% |
| O=C(O)c1ccc(-n2cc(C(=O)c3c(Cl)cccc3Cl)c3cc(F)ccc32)c(F)c1 [Example 23, 4-[3-(2,6-Dichlorobenzoyl)-5-fluoro-1H-indol-1-yl]-3-fluorobenzoic acid] | < 50 nM | 98.2% | 96.7% | – | – | – |
| O=C(O)c1ccc(-n2cc(C(=O)c3c(Cl)cccc3Cl)c3ccc(F)cc32)c(F)c1 [Example 24, 4-[3-(2,6-Dichlorobenzoyl)-6-fluoro-1H-indol-1-yl]-3-fluorobenzoic acid] | < 50 nM | 95.8% | 97.8% | – | – | – |
| CN(C)C(=O)c1ccc2c(C(=O)c3c(Cl)cccc3Cl)cn(-c3ccc(C(=O)O)cc3F)c2c1 [Example 26, 4-[3-(2,6-Dichloro-benzoyl)-6-dimethylcarbamoyl-indol-1-yl]-3-fluoro-benzoic acid] | – | – | – | – | 31.3% | 33.7% |
| O=C(O)c1ccc(-n2cc(C(=O)c3c(Cl)cccc3Cl)c3cccnc32)c(F)c1 [Example 27, 4-[3-(2,6-Dichlorobenzoyl)-1H-pyrrolo[2,3-b]pyridin-1-yl]-3-fluorobenzoic acid] | < 50 nM | 95.6% | 97.9% | – | – | – |
| O=C(O)c1ccc(-n2nc(C(=O)c3ccccc3)c3ccccc32)cc1 [Example 28, 4-[3-(Phenylcarbonyl)-1H-indazol-1-yl]benzoic acid] | – | 30.2% | 62.9% | – | – | – |
| O=C(O)c1ccc(-n2nc(C(=O)c3c(Cl)cccc3Cl)c3ccccc32)cc1 [Example 29, 4-[3-(2,6-Dichlorobenzoyl)-1H-indazol-1-yl]benzoic acid] | < 50 nM | 96.9% | 94.3% | – | – | – |
| O=C(O)c1ccc(-n2nc(C(=O)c3ccccc3)c3ccccc32)c(F)c1 [Example 30, 4-(3-Benzoyl-1H-indazol-1-yl)-3-fluorobenzoic acid] | – | 47.1% | 88.9% | – | – | – |
| O=C(O)c1ccc(-n2nc(C(=O)c3c(Cl)cccc3Cl)c3ccccc32)c(F)c1 [Example 31, 4-[3-(2,6-Dichlorobenzoyl)-1H-indazol-1-yl]-3-fluorobenzoic acid] | < 50 nM | 96.6% | 91.6% | – | – | – |
| O=C(O)c1ccc(-n2nc(C(=O)c3c(Cl)cccc3Cl)c3cccc(F)c32)cc1 [Example 32, 4-{3-[(2,6-Dichlorophenyl)carbonyl]-7-fluoro-1H-indazol-1-yl}benzoic acid] | < 50 nM | 94.6% | 90.4% | – | – | – |
| O=C(O)c1ccc(-n2nc(C(=O)c3c(Cl)cccc3C(F)(F)F)c3ccccc32)c(F)c1 [Example 33, 4-(3-{[2-Chloro-6-(trifluoromethyl)phenyl]carbonyl}-1H-indazol-1-yl)-3-fluorobenzoic acid] | < 50 nM | 98.1% | 94.1% | – | – | – |
| O=C(O)c1ccc(-n2nc(C(=O)c3c(Cl)cccc3C(F)(F)F)c3ccccc32)cc1 [Example 34, 4-(3-{[2-Chloro-6-(trifluoromethyl)phenyl]carbonyl}-1H-indazol-1-yl)-benzoic acid] | < 50 nM | 96.9% | 92% | – | – | – |
| O=C(O)c1ccc(-n2nc(C(=O)c3c(Cl)cccc3C3CC3)c3cccc(F)c32)cc1 [Example 35, 4-{3-[(2-Chloro-6-cyclopropylphenyl)carbonyl]-7-fluoro-1H-indazol-1-yl}benzoic acid] | < 50 nM | 92.3% | 89.2% | – | – | – |
